Literature values as cited in US10471156B2, “Pharmaceutical composition comprising amorphous lenalidomide” (SYNTHON B.V., priority 2014, dated 2019).

Row | Compound | solubility in water | aqueous solubility (water)
1 | Nc1cccc2c1CN(C1CCC(=O)NC1=O)C2=O (racemic) [Lenalidomide, (RS)-3-(4-Amino-1-oxo 1,3-dihydro-2H-isoindol-2-yl)piperidine-2,6-dione] | slightly soluble | –
2 | 2-hydroxypropyl-β-cyclodextrin | – | exceeding 600 mg/ml
